Measurements reported in patent US10973865B2, “Method of making solanaceae fruit extracts” (Provexis Natural Products Limited, priority 2008, dated 2021).
In brackets after ≈: the same amount, converted by molar mass.

What was measured:
Type in all cases: cell-based, human
[1] = system: platelet aggregation induced by ADP in platelet-rich plasma; test: Inhibition of ADP-induced platelet aggregation in platelet-rich plasma (aggregometer); conditions: amount in mg inhibiting aggregation by 50% in 1 mL platelet-rich plasma, ADP 10 μmol/L, average of at least 3 IC50s; for IC50: Homo sapiens
Method: (§1) The experimental protocol described below was devised to determine the […] values of compounds isolated as described in 1.1.3. Crude bioassays to evaluate inhibition of platelet aggregation in vitro were performed on some crude extracts (data not shown) to help select fine fractions/compounds identified by HPLC for functional activity. This approach was considered necessary to avoid the need to assay each and ever compound (the would be thousands) in the fruit extracts.
(§2) An IC50 value represents the amount of a compound, in mg, required to inhibit by 50% the platelet aggregation induced under standardised conditions in 1 mL platelet-rich plasma, in comparison with control samples.
(§3) Blood for in vitro studies was collected from drug-free, healthy human volunteers, both male and female, aged 18-60 years, with normal platelet function. Subjects declared that they had not consumed drugs or supplements known to affect platelet function for a minimum of 10 days before providing a blood sample. Blood was collected after single venepuncture to an antecubital vein through siliconized needles into plastic citrated blood collection tubes (Sarstedt Monovettes, final concentration sodium citrate, 13 mmol/L). All blood was maintained at 37° C. from the time of blood sampling.
(§4) Platelet-rich plasma (PRP) was obtained by centrifugation of citrated blood for 15 minutes at 200×g, and was adjusted with platelet-poor plasma to a standard platelet number of 320±20×10^9/L prior to use. PRP was used for platelet function measurements within two hours.
(§5) The following agonists were used for platelet function measurements. Adenosine diphosphate (ADP), final concentration 10 μmol/L; collagen, final concentration 5 mg/L; arachidonic acid, final concentration 500 U/L (all from Helena Biosciences, Sunderland, UK); thrombin receptor-activating peptide (TRAP), final concentration 25 nmol/L (Sigma-Aldrich, Poole, UK). Agonists were prepared from stock solutions immediately before use, diluting into warmed physiological saline (0.9% NaCl).
(§6) Individual platelet inhibitors were prepared at a concentration of between 500 g/L and 100 g/L in either physiological saline, ultra-pure methanol or ultra-pure DMSO (Sigma-Aldrich, Poole, UK) and stored frozen until required. Stock solutions were then diluted with physiological saline immediately prior to use.
(§7) 450 μL PRP was incubated with 50 μL diluted inhibitor solution at 37° C. for 10 minutes, in low-retention epindorrfs. Inhibitor solutions were diluted such that the final concentration of methanol or DMSO in the PRP sample never exceeded 2%. Suitable control samples, containing 50 μL physiological saline matched for methanol or DMSO content as appropriate, were incubated simultaneously. For each inhibitor compound, 5 incubation concentrations were used; final concentrations of 0.05 mg/mL, 0.10 mg/mL, 1.00 mg/mL, 5.00 mg/mL and 10 mg/mL were used as standard.
(§8) After incubation with platelet inhibitors, PRP samples were transferred to glass cuvettes and the extent of aggregation induced by either ADP, collagen, TRAP or arachidonic acid was monitored over 10 minutes on a platelet aggregometer (PACKS 4, Helena Biosciences, Sunderland, UK). A control sample was run with each sample set. From the aggregation curves generated, the area under the curve was calculated for each PRP sample, and the inhibition of aggregation achieved at each inhibitor concentration was calculated by comparing the area under the curve for these PRP samples with that of the control sample. The inhibition of aggregation was expressed as % inhibition, compared to control, and from the 6 data points obtained per inhibitor compound, a dose-response curve was constructed. This curve was then used to predict the IC50 value for that inhibitor compound, as shown in 1.2, Results, and FIG. 1.
(§9) For each blood sample obtained, 6-point dose-response curves for 2 different inhibitory compounds could be generated. […]

[2] = system: platelet aggregation induced by arachidonic acid in platelet-rich plasma; test: Inhibition of arachidonic acid-induced platelet aggregation in platelet-rich plasma (aggregometer); conditions: amount in mg inhibiting aggregation by 50% in 1 mL platelet-rich plasma, arachidonic acid 500 U/L, average of at least 3 IC50s; for IC50: Homo sapiens
Method: as §1, §2, §3, §4, §5, §6, §7, §8, §9

[3] = system: platelet aggregation induced by collagen in platelet-rich plasma; test: Inhibition of collagen-induced platelet aggregation in platelet-rich plasma (aggregometer); conditions: amount in mg inhibiting aggregation by 50% in 1 mL platelet-rich plasma, collagen 5 mg/L, average of at least 3 IC50s; for IC50: Homo sapiens
Method: as §1, §2, §3, §4, §5, §6, §7, §8, §9

[4] = system: platelet aggregation induced by thrombin receptor-activating peptide (TRAP) in platelet-rich plasma; test: Inhibition of TRAP-induced platelet aggregation in platelet-rich plasma (aggregometer); conditions: amount in mg inhibiting aggregation by 50% in 1 mL platelet-rich plasma, TRAP 25 nmol/L, average of at least 3 IC50s; for IC50: Homo sapiens
Method: as §1, §2, §3, §4, §5, §6, §7, §8, §9

IC50 [1]	IC50 [2]	IC50 [3]	IC50 [4]	IC50 ADP [1]	IC50 AA [2]	IC50 Collagen [3]	IC50 TRAP [4]	Molecule
18.7 mg/mL (≈ 96.1 mM)	9.94 mg/mL (≈ 51.2 mM)	13.9 mg/mL (≈ 71.6 mM)	14.7 mg/mL (≈ 75.4 mM)	–	–	–	–	COc1cc(/C=C/C(=O)O)ccc1O [Compound 21, Ferulic acid]
35.2 mg/mL (≈ 57.7 mM)	–	32.2 mg/mL (≈ 52.7 mM)	8.96 mg/mL (≈ 14.7 mM)	–	–	–	–	C[C@@H]1O[C@@H](OC[C@H]2O[C@@H](Oc3c(-c4ccc(O)c(O)c4)oc4cc(O)cc(O)c4c3=O)[C@H](O)[C@@H](O)[C@@H]2O)[C@H](O)[C@H](O)[C@H]1O [Compound 27, Rutin]
–	3.66 mg/mL (≈ 12.1 mM)	–	19.7 mg/mL (≈ 65 mM)	–	–	–	–	O=c1c(O)c(-c2ccc(O)c(O)c2)oc2cc(O)cc(O)c12 [Compound 30, Quercetin]
–	5.18 mg/mL (≈ 18.1 mM)	–	26.2 mg/mL (≈ 91.5 mM)	–	–	–	–	O=c1c(O)c(-c2ccc(O)cc2)oc2cc(O)cc(O)c12 [Compound 31, Kaempferol]
–	10.4 mg/mL (≈ 38.2 mM)	–	33.2 mg/mL (≈ 122 mM)	–	–	–	–	O=C1C[C@@H](c2ccc(O)cc2)Oc2cc(O)cc(O)c21 [Compound 32, Naringenin]

Continued, molecule first:

Molecule	IC50 [1]	IC50 [2]	IC50 [3]	IC50 [4]	IC50 ADP [1]	IC50 AA [2]	IC50 Collagen [3]	IC50 TRAP [4]
Nc1ccn([C@@H]2O[C@H](CO)[C@@H](O)[C@H]2O)c(=O)n1 [Compound 1, Cytidine]	2.42 mg/mL (≈ 9.95 mM)	39 mg/mL (≈ 160 mM)	10.7 mg/mL (≈ 43.8 mM)	39 mg/mL (≈ 160 mM)	–	–	–	–
O=c1ccn([C@@H]2O[C@H](CO)[C@@H](O)[C@H]2O)c(=O)[nH]1 [Compound 3, Uridine]	6.51 mg/mL (≈ 26.7 mM)	–	16 mg/mL (≈ 65.5 mM)	–	–	–	–	–
Nc1nc2c(ncn2[C@@H]2O[C@H](CO)[C@@H](O)[C@H]2O)c(=O)[nH]1 [Compound 4, Guanosine]	–	–	–	26.1 mg/mL (≈ 92 mM)	–	–	–	–
O=C(/C=C/c1ccc(O)c(O)c1)O[C@@H]1C[C@](O)(C(=O)O)C[C@@H](O)[C@H]1O [Compound 14, Chlorogenic acid]	–	–	–	–	10.08 mg	0.77 mg	10.11 mg	1.1 mg
O=C(O)/C=C/c1ccc(O)c(O)c1 [Compound 18, Caffeic acid]	19 mg/mL (≈ 105 mM)	7.33 mg/mL (≈ 40.7 mM)	11.4 mg/mL (≈ 63.1 mM)	8.03 mg/mL (≈ 44.6 mM)	–	–	–	–
O=C(O)/C=C/c1ccc(O)cc1 [Compound 19, p-coumaric acid]	13.2 mg/mL (≈ 80.5 mM)	10.2 mg/mL (≈ 62 mM)	14.6 mg/mL (≈ 89.1 mM)	12.8 mg/mL (≈ 78.1 mM)	–	–	–	–
O=C(O)c1ccccc1 [Compound 20, Benzoic acid]	–	–	–	–	25.11 mg	15.45 mg	17.74 mg	18.19 mg
Adenosine 3′-monophospate [Compound 5]	–	–	–	–	0.12 mg	2.41 mg	0.28 mg	24.51 mg
